Each block holds one compound with its values, some of them ahead of it.
Columns and labels:
ICR mice = assay: Toxicology study; assay type: in vivo; settings: oral 300 mg/10 ml/kg
Protocol: Each Compound (Example Nos. 7 and 8) was administered orally to ICR mice (7 animals per group) as a test compound. […] Each test compound was suspended in 0.5% CMC—Na solution and given orally to the animal at a dose of 300 mg/10 ml/kg.

[1] = tested on: actively sensitized guinea pigs; assay: Inhibition of antigen-induced immediate asthmatic response (airway resistance, Konzett-Rossler method); assay type: in vivo, Male Hartley outbred guinea pigs; settings: orally, 60 minutes prior to antigen-challenge, ovalbumin-sensitized guinea pigs, Probit method; for ED50: Cavia porcellus
Protocol: Male Hartley outbred guinea pigs were sensitized by administering intraperitoneally physiological saline (0.5 ml) containing ovalbumin (1 mg, antigen) and 5×10^9 inactivated Bordetella pertussis dead cells (adjuvant). Eleven to thirteen days after the first sensitization, 0.05 ml of an ovalbumin solution (1 mg/ml) (ovalbumin is dissolved in physiological saline) was administered to the lateroabdominal region of each guinea pig intracutaneously. An establishment of sensitization was checked relying on cutaneous reaction. Only guinea pigs wherein significant reddening responses occurred 5 to 10 minutes later were employed in the next measurement test for airway resistance.
The guinea pigs (3 animals per group) actively sensitized in the above step (1) were employed to measure for their airway pressure according to Konzett-Rossler method (Arch. Exp. Path. Pharmakol., 195, 71 (1940)).
Thirteen days after the final sensitization, guinea pigs fasted overnight, and were on the next day anesthetized with a pentobarbital solution (30 mg/1.2 ml/kg, dissolved in physiological saline, intraperitoneal administration). After the guinea pigs were fixed in a supine position, their trachea was incised followed by insertion with one port of a 4-port cannula. Among the remaining 3 ports, 2 ports were connected to an artificial respirator (Model 683, Harvard). The animals were ventilated with 10 ml/kg of air per ventilation at a rate of 60 beats/min via the artificial respirator from the cannula. One port remainder was connected to a respiratory amplifier (AR-601G, Nihon Kohden, Japan) via an airflow resistance tube (TV-241T, Nihon Kohden, Japan) and a differential pressure transducer (TP-602T, Nihon Kohden, Japan) connected with a control box (RY-111S, Nihon Kohden, Japan). From a catheter inserted into a left carotid artery, blood pressures were monitored with a blood pressure measurement unit (AP641G, NEC Corp., Japan) via a blood pressure transducer (TP-300T, Nihon Kohden, Japan), and heart rates were recorded on a thermal recorder (WT-685G, Nihon Kohden, Japan), relying on blood pressure pulse waves after being led to a cardiograph unit (AT601G, Nihon Kohden, Japan).
After airway pressure became stable, an ovalbumin solution. (1 mg/ml, dissolved in physiological saline) was administered at a dose of 1 ml/kg via a tube with which the right jugular vein of guinea pigs was cannulated.
Each test compound was suspended in 0.5% CMC—Na solution and administered orally with an oral sound at a dose of 0.03 to 20 mg/2 ml/kg 60 minutes prior to the antigen-challenge. Control groups received only 0.5% CMC—Na solution in an equivalent amount. The pentobarbital-anesthetization and tracheal incision were conducted 30 minutes prior to the antigen-challenge.
Each percent reduction of increase in airway resistance (each test compound-administered group versus control group) was calculated according to the equation given below. ED50 was obtained by Probit method.

[2] = tested on: PDE IV isozymes separated from U937 culture cells; assay: PDE IV inhibition ([3H]-cAMP hydrolysis); assay type: biochemical; settings: cAMP 1 μM as substrate, 30° C., 20 minutes, Probit method
Protocol: PDE IV isozymes as used herein were separated from U937 culture cells by using an anion exchange chromatography. Type IV PDE isozyme was admixed with ethylene glycol (EG) to adjust the final EG concentration to 30%, then stored at −20° C. and diluted when used. The enzymatic activity for PDE IV was measured using cAMP as a substrate.
Each test compound was dissolved in DMSO to adjust the final concentration to 1% (2.5 μl/tube). Incubation buffer solution (pH7.5): • Tris-HCl (50 mM), magnesium chloride (6 mM), dithiothreitol (2.5 mM), 5-nucleotidase (4 μg/ml), bovine serum albumin (0.23 mg/ml), and cAMP (1 μM).
A mixture of the aforementioned test compound solution and the buffer solution was incubated at 30° C. for 20 minutes. The reaction was quenched by admixing with 1 ml of anion exchange resin slurry (AG1-X8, 200–400 meshes, chloride form; Bio-Rad) to absorb unreacted substrates. After the reaction stopped, the mixture was centrifuged at 800×g for 10 minutes, and the resulting supernatant was collected with vials in 250 μl aliquots. To each vial was added 5 ml of ACS-II (scintillator, Amersham). The radioactivity was measured with a liquid scintillator counter for [^3H]-adenosine and set as the PDE IV activity.

Male Marshall ferrets = assay: Emetic action; assay type: in vivo; settings: oral, observed within 12 hours
Protocol: Male Marshall ferrets (each group consisting of 3 animals) as used herein fasted overnight. On the next day, a suspension of each test compound in 0.5% CMC—Na solution was administered orally to the animals. […] Next, each maximum tolerance dose against emesis was obtained. SB207499 was used for the reference compound in this assay.

TNF-α production = assay: Inhibition of TNF-α production in galactosamine- and LPS-stimulation; assay type: in vivo, C3H/HeN mice; settings: Mus musculus; oral, 1 hour before i.v. galactosamine 800 mg/kg and LPS 5 μg/kg; serum TNF-α by ELISA 1 hour later
Protocol: A suspension of each test compound in 0.5% CMC—Na solution was administered orally to C3H/HeN mice at a dose of 0.10 to 10 mg/kg. One hour later, the animals received intravenously galactosamine at a dose of 800 mg/kg and LPS at a dose 5 μg/kg to raise the induction of TNF-α production. One hour later after the galactosamine- and LPS-administration, amounts of TNF-α in serum samples were measured by ELISA.

SMILES: O=c1c(CCCc2cncnc2)cc2cccnc2n1-c1cccc([N+](=O)[O-])c1 [Example 4, 1-(3-Nitrophenyl)-3-[3-(pyrimidin-5-yl)propyl]-1,8-naphthyridin-2(1H)-one]
melting point: 175 to 175.5 °C

SMILES: Nc1cccc(-n2c(=O)c(CCCc3cc[n+]([O-])cc3)cc3cccnc32)c1 [Example No. 8, 1-(3-Aminophenyl)-3-[3-(1-oxypyridin-4-yl)propyl]-1,8-naphthyridin-2(1H)-one]
Body weight gain (ICR mice): No reduction of body weight gains was observed
Mortality (ICR mice): None of the animals were died
Other parameters (general health conditions) (ICR mice): no abnormality was observed
ED50 [1]: 1.2 mg/kg
IC50 [2]: 0.067 µM
Emetic actions at asthmatic response-inhibitory ED50 level (Male Marshall ferrets; dose = ED50 of Assay Example 2): no observation for emetic actions

SMILES: COc1ccc(C2CNC(=O)C2)cc1OC1CCCC1 (centres unmarked) [Rolipram, reference compound]
ED50 [1]: 0.51 mg/kg

SMILES: O=c1c(CCCc2ccccn2)cc2cccnc2n1-c1ccc2nsnc2c1 [Example 3, 1-(2,1,3-Benzothiadiazol-5-yl)-3-[3-(pyridin-2-yl)propyl]-1,8-naphthyridin-2(1H)-one]
melting point: 169.5 to 170.5 °C

SMILES: COc1ccc([C@]2(C#N)CC[C@@H](C(=O)O)CC2)cc1OC1CCCC1 [SB207499, cis-4-cyano-4-[3-(cyclopentyloxy)-4-methoxyphenyl]cyclohexane-1-carboxylic acid, reference compound]
ED50 [1]: 20 mg/kg
IC50 [2]: 0.03 µM
Emetic activity at a half of the ED50 dose (Male Marshall ferrets; a half of the ED50 dose of Assay Example 2): elicitation of emetic activity has been found
ED50 (TNF-α production): 0.9 mg/kg

SMILES: O=c1c(CCCc2cnccn2)cc2cccnc2n1-c1cccc([N+](=O)[O-])c1 [Example 6, 1-(3-Nitrophenyl)-3-[3-(pyrazin-2-yl)propyl]-1,8-naphthyridin-2(1H)-one]
melting point: 194 to 195 °C

SMILES: Nc1cccc(-n2c(=O)c(CCC(=O)c3cc[n+]([O-])cc3)cc3cccnc32)c1 [Example No. 19, 1-(3-Aminophenyl)-3-[3-oxo-3-(1-oxypyridin-4-yl)propyl]-1,8-naphthyridin-2(1H)-one]
Inhibition of Asthmatic response ED50 [1]: 0.38 mg/kg

SMILES: O=c1c(CCCc2cccnc2)cc2cccnc2n1-c1ccc2nsnc2c1 [Example 2, 1-(2,1,3-Benzothiadiazol-5-yl)-3-[3-(pyridin-3-yl)propyl]-1,8-naphthyridin-2(1H)-one]
melting point: 173.5 to 174.5 °C

SMILES: O=c1c(CCCc2cccnn2)cc2cccnc2n1-c1cccc([N+](=O)[O-])c1 [Example 5, 1-(3-Nitrophenyl)-3-[3-(pyridazin-3-yl)propyl]-1,8-naphthyridin-2(1H)-one]
melting point: 234 to 235 °C

SMILES: CN(C)c1cccc(-n2c(=O)c(CCCc3ccncc3)cc3cccnc32)c1 [Example 9, 1-(3-Dimethylaminophenyl)-3-[3-(pyridin-4-yl)propyl]-1,8-naphthyridin-2(1H)-one]
melting point: 124 to 127 °C

The next lines start with results.

melting point: 191 to 192 °C
SMILES: O=c1c(CCCc2ccncc2)cc2cccnc2n1-c1cccc2nsnc12 [Example 24, 1-(2,1,3-Benzothiadiazol-4-yl)-3-[3-(pyridin-4-yl)propyl]-1,8-naphthyridin-2(1H)-one]

IC50 [2]: 0.13 µM
melting point: 182.5 to 196.5 °C
SMILES: CC(CCc1cc2cccnc2n(-c2cccc([N+](=O)[O-])c2)c1=O)c1cc[n+]([O-])cc1 (centres unmarked) [Example No. 12, 1-(3-nitrophenyl)-3-[3-methyl-3-(1-oxypyridin-4-yl)propyl]-1,8-naphthyridin-2(1H)-one]
ED50 [1]: 0.21 mg/kg

melting point: 83 to 91 °C
SMILES: CC(CCc1cc2cccnc2n(-c2cccc(N)c2)c1=O)c1ccncc1 (centres unmarked) [Example 13, 1-(3-Aminophenyl)-3-[3-methyl-3-(pyridin-4-yl)propyl]-1,8-naphthyridin-2(1H)-one]

melting point: 235 to 236 °C
SMILES: O=c1c(CCC(O)c2ccncc2)cc2cccnc2n1-c1cccc([N+](=O)[O-])c1 (centres unmarked) [Example 20, 1-(3-nitrophenyl)-3-[3-hydroxy-3-(pyridin-4-yl)propyl]-1,8-naphthyridin-2(1H)-one]

IC50 [2]: 0.07 µM
melting point: 154 to 155 °C
SMILES: CC(CCc1cc2cccnc2n(-c2cccc([N+](=O)[O-])c2)c1=O)c1ccncc1 (centres unmarked) [Example No. 11, 1-(3-Nitrophenyl)-3-[3-methyl-3-(pyridin-4-yl)propyl]-1,8-naphthyridin-2(1H)-one]
ED50 [1]: 0.12 mg/kg

melting point: 148 to 154 °C
SMILES: CC(CCc1cc2cccnc2n(-c2cccc(N(C)C)c2)c1=O)c1ccncc1 (centres unmarked) [Example 15, 1-(3-Dimethylaminophenyl)-3-[3-methyl-3-(pyridin-4-yl)propyl]-1,8-naphthyridin-2(1H)-one]

melting point: 136 to 137 °C
SMILES: O=c1c(CCCc2ccncc2)cc2cccnc2n1-c1ccc(Cl)c([N+](=O)[O-])c1 [Example 25, 1-(4-Chloro-3-nitrophenyl)-3-[3-(pyridin-4-yl)propyl]-1,8-naphthyridin-2(1H)-one]

melting point: 209 to 211 °C
SMILES: Nc1cccc(-n2c(=O)c(CCC(O)c3ccncc3)cc3cccnc32)c1 (centres unmarked) [Example 23, 1-(3-Aminophenyl)-3-[3-hydroxy-3-(pyridin-4-yl)propyl]-1,8-naphthyridin-2(1H)-one]

melting point: 200 to 202 °C
SMILES: CC(=O)Nc1cccc(-n2c(=O)c(CCCc3ccncc3)cc3cccnc32)c1 [Example 10, 1-(3-Acetylaminophenyl)-3-[3-(pyridin-4-yl)propyl]-1,8-naphthyridin-2(1H)-one]

melting point: 192 to 194 °C
SMILES: O=c1c(CCCc2ccncc2)cc2cccnc2n1-c1ccc2nonc2c1 [Example 27, 1-(2,1,3-Benzoxadiazol-5-yl)-3-[3-(pyridin-4-yl)propyl]-1,8-naphthyridin-2(1H)-one]

melting point: 69 to 71 °C
SMILES: CC(=O)OC(CCc1cc2cccnc2n(-c2cccc([N+](=O)[O-])c2)c1=O)c1ccncc1 (centres unmarked) [Example 22, 1-(3-Nitrophenyl)-3-[3-acetyloxy-3-(pyridin-4-yl)propyl]-1,8-naphthyridin-2(1H)-one]

IC50 [2]: 0.45 µM
SMILES: O=C(CCc1cc2cccnc2n(-c2cccc([N+](=O)[O-])c2)c1=O)c1ccncc1 [Example No. 17, 1-(3-Nitrophenyl)-3-[3-oxy-3-(pyridin-4-yl)propyl]-1,8-naphthyridin-2(1H)-one]
ED50 [1]: 0.71 mg/kg
